ChEMBL document CHEMBL1126224, “Synthesis and biological activity of 4-(diphenylmethyl)-alpha-[(4-quinolinyloxy)methyl]-1-piperazineethanol and related compounds” (J Med Chem, 1992)
Activity calls are given as the source filed them. The rule behind the calls is not given here.

Key:
Rattus norvegicus [1] = species on record: Rattus norvegicus; assay: The compound was tested for its cardiovascular activity in rat heart model. producing a 50% increase (EC50) in CF(coronary flow).; format: functional, organism-based
Rattus norvegicus [2] = species on record: Rattus norvegicus; assay: The compound was tested for its cardiovascular activity in rat heart model. producing a 25% increase (EC25) in LV dP/dtmax (measure of contractility); N = not active; format: functional, organism-based
Rattus norvegicus [3] = species on record: Rattus norvegicus; assay: The compound was tested for its cardiovascular activity in rat heart model. producing a 25% increase (EC25) in CF(coronary flow).; format: functional
Rattus norvegicus [4] = species on record: Rattus norvegicus; assay: The compound was tested for its cardiovascular activity in rat heart model. producing a 25% increase (EC25) in LV dP/dtmax (measure of contractility).; format: functional
Oryctolagus cuniculus = species on record: Oryctolagus cuniculus; assay: Calcium channel blocking activity in rabbit aortic rings; format: functional; conditions: Aorta
Canis familiaris [5] = assay: The compound was tested for its cardiovascular activity expressed as heart rate in beat/min in anesthetized dogs for a dose of 1.0 mg/kg; format: functional, Canis lupus familiaris
Canis familiaris [6] = assay: The compound was tested for its cardiovascular activity in anesthetized dogs producing a 25% increase (EC25) in LV dP/dtmax (measure of contractility) for a dose of 1.0 mg/kg; format: functional, Canis lupus familiaris, Heart
Canis familiaris [7] = assay: The compound was tested for its cardiovascular activity in anesthetized dogs producing a 25% increase (EC25) in LV dP/dtmax (measure of contractility) for a dose of 0.01 mg/kg; format: functional, Canis lupus familiaris, Heart
Canis familiaris [8] = assay: The compound was tested for its cardiovascular activity expressed as heart rate in beat/min in anesthetized dogs for a dose of 0.1 mg/kg; format: functional, Canis lupus familiaris
Canis familiaris [9] = assay: Total peripheral resistance was tested in anesthetized dogs for a dose of 0.1 mg/kg; format: functional, Canis lupus familiaris
Canis familiaris [10] = assay: Mean blood pressure was tested in anesthetized dogs. for a dose of 0.1 mg/kg; format: functional, Canis lupus familiaris
Rattus norvegicus [11] = species on record: Rattus norvegicus; assay: The compound was tested for its cardiovascular activity in rat heart model. producing a 50% increase (EC50) in LV dP/dtmax (measure of contractility).; format: functional, organism-based
Canis familiaris [12] = assay: The compound was tested for its cardiovascular activity expressed as heart rate in beat/min in anesthetized dogs for a dose of 0.01 mg/kg; format: functional, Canis lupus familiaris
Canis familiaris [13] = assay: The compound was tested for its cardiovascular activity in anesthetized dogs producing a 25% increase (EC25) in LV dP/dtmax (measure of contractility) for a dose of 0.1 mg/kg; format: functional, Canis lupus familiaris, Heart
Cavia porcellus = species on record: Cavia porcellus; assay: Coronary flow activity in Langendorff perfused guinea pig heart; format: functional
Canis familiaris [14] = assay: Total peripheral resistance was tested in anesthetized dogs for a dose of 1.0 mg/kg; format: functional, Canis lupus familiaris
Canis familiaris [15] = assay: Mean blood pressure was tested in anesthetized dogs. for a dose of 1.0 mg/kg; format: functional, Canis lupus familiaris
Rattus norvegicus [16] = species on record: Rattus norvegicus; assay: The compound was tested for its cardiovascular activity in rat heart model. producing a 25% increase (EC50) in CF(coronary flow); NA = not achieved; format: functional, organism-based
Canis familiaris [17] = assay: Mean blood pressure was tested in anesthetized dogs. for a dose of 0.01 mg/kg; format: functional, Canis lupus familiaris
Canis familiaris [18] = assay: Total peripheral resistance was tested in anesthetized dogs for a dose of 0.01 mg/kg; format: functional, Canis lupus familiaris
Rattus norvegicus [19] = species on record: Rattus norvegicus; assay: (§1) The compound was tested for its cardiovascular activity in rat heart model. producing a 25% increase (EC25) in CF(coronary flow); N = not active; format: functional, organism-based
Rattus norvegicus [20] = species on record: Rattus norvegicus; assay: The compound was tested for its cardiovascular activity in rat heart model. producing a 25% increase (EC25) in LV dP/dtmax (measure of contractility); NA = not achieved; format: functional, organism-based
Canis familiaris [21] = assay: Mean blood pressure was tested in anesthetized dogs. for a dose of 0.3 mg/kg; format: functional, Canis lupus familiaris
Canis familiaris [22] = assay: Total peripheral resistance was tested in anesthetized dogs for a dose of 0.3 mg/kg; format: functional, Canis lupus familiaris
Canis familiaris [23] = assay: The compound was tested for its cardiovascular activity expressed as heart rate in beat/min in anesthetized dogs for a dose of 0.3 mg/kg; format: functional, Canis lupus familiaris
Canis familiaris [24] = assay: The compound was tested for its cardiovascular activity in anesthetized dogs producing a 25% increase (EC25) in LV dP/dtmax (measure of contractility) for a dose of 0.3 mg/kg; format: functional, Canis lupus familiaris, Heart
Rattus norvegicus [25] = species on record: Rattus norvegicus; assay: The compound was tested for its cardiovascular activity in rat heart model. producing a 50% increase (EC50) in LV dP/dtmax (measure of contractility); NA = not achieved; format: functional, organism-based
Rattus norvegicus [26] = species on record: Rattus norvegicus; assay: as §1; format: functional, organism-based; remark: listed apart in the source

OC(COc1ccnc2cc(C(F)(F)F)ccc12)CN1CCN(C(c2ccccc2)c2ccccc2)CC1 (configuration not stated)
EC50 (Rattus norvegicus [1]): 400 nM | EC25 (Rattus norvegicus [2]): inactive | EC25 (Rattus norvegicus [3]): 200 nM

N#Cc1cc2c(OCC(O)CN3CCN(C(c4ccccc4)c4ccccc4)CC3)cccc2[nH]1 (configuration not stated)
EC25 (Rattus norvegicus [4]): 20 nM | EC25 (Oryctolagus cuniculus): > 100000 nM | Heart rate (Canis familiaris [5]): -1 beats min-1 | Contractility (Canis familiaris [6]): 83.3 mmHg s-1 | Contractility (Canis familiaris [7]): 9 mmHg s-1 | Heart rate (Canis familiaris [8]): -0.66 beats min-1 | Total peripheral resistance (Canis familiaris [9]): -17.3 mmHg·min/mL | Mean blood pressure (Canis familiaris [10]): 2.3 mmHg | EC50 (Rattus norvegicus [11]): 35 nM | Heart rate (Canis familiaris [12]): 0.66 beats min-1 | EC25 (Rattus norvegicus [3]): 300 nM | Contractility (Canis familiaris [13]): 21.3 mmHg s-1 | EC25 (Cavia porcellus): 280 nM | Total peripheral resistance (Canis familiaris [14]): -24.5 mmHg·min/mL | Mean blood pressure (Canis familiaris [15]): -21 mmHg | EC50 (Rattus norvegicus [16]): Not Active | Mean blood pressure (Canis familiaris [17]): 4.3 mmHg | Total peripheral resistance (Canis familiaris [18]): -9.6 mmHg·min/mL

Cc1cc(OCC(O)CN2CCN(C(c3ccccc3)c3ccccc3)CC2)c2ccccc2n1.Cl.O (configuration not stated)
EC25 (Rattus norvegicus [3]): 800 nM

Cc1cc(OCC(O)Cn2cnc3ccccc32)c2ccccc2n1 (configuration not stated)
EC50 (Rattus norvegicus [19]): Not Active | EC25 (Rattus norvegicus [2]): inactive

OC(COc1cccc2[nH]ccc12)CN1CCN(C(c2ccccc2)c2ccccc2)CC1 (configuration not stated)
EC50 (Rattus norvegicus [1]): 2500 nM | EC25 (Rattus norvegicus [2]): inactive | EC25 (Rattus norvegicus [3]): 120 nM

OC(COc1cccc2ncccc12)CN1CCN(C(c2ccccc2)c2ccccc2)CC1 (configuration not stated)
EC50 (Rattus norvegicus [1]): 2000 nM | EC25 (Rattus norvegicus [3]): 800 nM | EC25 (Rattus norvegicus [20]): inactive

CCOC(=N)c1cc2c(OCC(O)CN3CCN(C(c4ccccc4)c4ccccc4)CC3)cccc2o1 (configuration not stated)
EC25 (Rattus norvegicus [2]): inactive | EC25 (Rattus norvegicus [3]): 1000 nM

OC(COc1cccc2cnccc12)CN1CCN(C(c2ccccc2)c2ccccc2)CC1 (configuration not stated)
EC50 (Rattus norvegicus [1]): 1500 nM | EC25 (Rattus norvegicus [2]): inactive | EC25 (Rattus norvegicus [3]): 200 nM

N#Cc1cc2c(OCC(O)CN3CCN(C(c4ccccc4)c4ccccc4)CC3)cccc2o1 (configuration not stated)
EC25 (Rattus norvegicus [4]): 100 nM | EC25 (Oryctolagus cuniculus): > 100000 nM | Mean blood pressure (Canis familiaris [21]): -7.3 mmHg | EC50 (Rattus norvegicus [1]): 3000 nM | Heart rate (Canis familiaris [5]): -3.33 beats min-1 | Contractility (Canis familiaris [6]): 30.3 mmHg s-1 | Heart rate (Canis familiaris [8]): 0 beats min-1 | Total peripheral resistance (Canis familiaris [22]): -8.66 mmHg·min/mL | Total peripheral resistance (Canis familiaris [9]): -0.66 mmHg·min/mL | Mean blood pressure (Canis familiaris [10]): -0.66 mmHg | Heart rate (Canis familiaris [23]): -1.66 beats min-1 | EC50 (Rattus norvegicus [11]): 420 nM | EC25 (Rattus norvegicus [3]): 100 nM | Contractility (Canis familiaris [13]): 2 mmHg s-1 | EC25 (Cavia porcellus): 2250 nM | Total peripheral resistance (Canis familiaris [14]): -21.7 mmHg·min/mL | Contractility (Canis familiaris [24]): 9.3 mmHg s-1 | Mean blood pressure (Canis familiaris [15]): -14.5 mmHg

Oc1nccc2c(OCC(O)CN3CCN(C(c4ccccc4)c4ccccc4)CC3)cccc12 (configuration not stated)
EC25 (Rattus norvegicus [3]): 150 nM

OC(COc1cccc2cnccc12)CN1CCN(c2ccccc2SCc2ccccc2)CC1 (configuration not stated)
EC25 (Rattus norvegicus [2]): inactive | EC25 (Rattus norvegicus [3]): 1000 nM

OC(COc1ccc2cccnc2c1)CN1CCN(C(c2ccccc2)c2ccccc2)CC1 (configuration not stated)
EC25 (Rattus norvegicus [4]): 700 nM | EC50 (Rattus norvegicus [25]): Not Active | EC50 (Rattus norvegicus [1]): 1010 nM | EC25 (Rattus norvegicus [3]): 160 nM

OC(COc1ccnc2ccccc12)CN1CCN(C(c2ccccc2)c2ccccc2)CC1 (configuration not stated)
EC25 (Rattus norvegicus [4]): 140 nM | EC25 (Oryctolagus cuniculus): > 100000 nM | Mean blood pressure (Canis familiaris [21]): 4.5 mmHg | Heart rate (Canis familiaris [5]): -2.6 beats min-1 | Contractility (Canis familiaris [6]): 115.5 mmHg s-1 | Heart rate (Canis familiaris [8]): -2 beats min-1 | Total peripheral resistance (Canis familiaris [22]): 6.5 mmHg·min/mL | Total peripheral resistance (Canis familiaris [9]): 3 mmHg·min/mL | Mean blood pressure (Canis familiaris [10]): 3 mmHg | Heart rate (Canis familiaris [23]): -3.5 beats min-1 | EC50 (Rattus norvegicus [11]): 320 nM | EC25 (Rattus norvegicus [26]): inactive | Contractility (Canis familiaris [13]): 12 mmHg s-1 | EC25 (Cavia porcellus): 900 nM | Total peripheral resistance (Canis familiaris [14]): -17 mmHg·min/mL | Contractility (Canis familiaris [24]): 40 mmHg s-1 | Mean blood pressure (Canis familiaris [15]): 3 mmHg

Cc1cc(OCC(O)CN2CCc3ccccc3C2)c2ccccc2n1 (configuration not stated)
EC50 (Rattus norvegicus [19]): Not Active | EC25 (Rattus norvegicus [2]): inactive

Cl.OC(COc1ccc2ncccc2c1)CN1CCN(C(c2ccccc2)c2ccccc2)CC1 (configuration not stated)
EC25 (Rattus norvegicus [4]): 480 nM | EC50 (Rattus norvegicus [11]): 800 nM | EC25 (Rattus norvegicus [26]): inactive
